Several values for one entry are separate records, joined by “and”; a condition that tells them apart may be missing. Identical values can stand only once. One block for each compound: values may come before it.
How the values were obtained:
PCSK9 [1] = test: Basal_PCSK9 HepG2, primary SP and CRC (secreted PCSK9, ELISA); type: cell-based, human; settings: for Primary SP Basal_PCSK9 HepG2 SP % Inhib @ 2 μM / Primary SP Basal_PCSK9 HepG2 SP % Inhib @ 5 μM / Primary SP Basal_PCSK9 HepG2 SP % Inhib @ 50 μM: HepG2, single point; for IC50: HepG2, concentration response curve; for Primary SP Basal_PCSK9 HepG2 SP % Inhib @ 5 μM / accumulation of PCSK9 in culture media: 5 μM; for accumulation of PCSK9 in culture media: HepG2 cells, FIGS. 2A-2B; for activity rating in words (PCSK9 inhibition, Table 2): summary of Table 2 data
Experimental: To study the effect of the compounds on PCSK9 secretion we used 1×10^6 HepG2 cells in 6-well culture plates, followed by incubation with media only, media+0.1% DMSO or Media+5 uM of 31/33/34/35 in 0.1% DMSO and collection of 50 ul of media at 8, 16, 24 and 40 hours or incubation with increasing concentration (0.2-50 μM) of 34 in 0.1% DMSO for 24 hours and collection of 50 ul of media. The collected media was analyzed for PCSK9 levels using commercially available ELISA kit (MBL-international, catalog # CY-8079) following the manufacturer instruction.
(§1) The below data (Table 2) was generated using the assays as discussed in Examples 1-2. Blanks mean no testing was performed. […] For the SP assays, the higher the number, the higher the inhibition, e.g., the better the activity of the compound. Compounds with a determined IC50 are particularly active, the IC50 values were determined via dose response curve (under the heading CRC which stands for concentration response curve aka dose response curve).

PCSK9 [2] = test: PCSK9 AlphaLisa Huh7 SP and CRC; type: cell-based
PCSK9 [3] = test: Secondary Basal_PCSK9 ELISA RPH; type: cell-based
Experimental: as §1

SMILES: Cn1c2c(c3ccccc31)C(c1ccccc1)C1C=CC2C1 (centres unmarked) [Compound 1]
- Primary SP Basal_PCSK9 HepG2 SP % Inhib @ 2 μM (PCSK9 [1]): 0%

SMILES: COc1ccc(C2c3c(n(C)c4ccccc34)C3C=CC2C3)cc1 (centres unmarked) [Compound 2]
- Primary SP Basal_PCSK9 HepG2 SP % Inhib @ 5 μM (PCSK9 [1]): 39.51%

SMILES: Cn1c2c(c3ccccc31)C(c1ccc(C(F)(F)F)cc1)C1C=CC2C1 (centres unmarked) [Compound 3]
- Primary SP Basal_PCSK9 HepG2 SP % Inhib @ 5 μM (PCSK9 [1]): −0.4577%

SMILES: Cn1c2c(c3ccccc31)C(c1ccco1)C1C=CC2C1 (centres unmarked) [Compound 4]
- Primary SP Basal_PCSK9 HepG2 SP % Inhib @ 5 μM (PCSK9 [1]): 11.69%

SMILES: Cn1c2c(c3ccccc31)C(c1cccs1)C1C=CC2C1 (centres unmarked) [Compound 5]
- Primary SP Basal_PCSK9 HepG2 SP % Inhib @ 5 μM (PCSK9 [1]): 30.55%

SMILES: CCC1c2c(n(C)c3ccccc23)C2C=CC1C2 (centres unmarked) [Compound 6]
- Primary SP Basal_PCSK9 HepG2 SP % Inhib @ 5 μM (PCSK9 [1]): −5.193%

SMILES: Cn1c2c(c3ccccc31)C1(CCCC1)C1C=CC2C1 (centres unmarked) [Compound 7]
- Primary SP PCSK9 AlphaLisa Huh7 SP % Inhib @ 10 μM (PCSK9 [2]; Huh7): −34.71%

SMILES: Cn1c2c(c3ccccc31)C1(CCCCC1)C1C=CC2C1 (centres unmarked) [Compound 8]
- Primary SP PCSK9 AlphaLisa Huh7 SP % Inhib @ 10 μM (PCSK9 [2]; Huh7): −44.02%

SMILES: Cn1c2c(c3ccccc31)C1(CCCCC1)C1C=CC2C1 (centres unmarked) [Compound 9]
- Primary SP Basal_PCSK9 HepG2 SP % Inhib @ 5 μM (PCSK9 [1]): 21.92%

SMILES: CC1=C(C)CC2(CCCCC2)c2c(n(C)c3ccccc23)C1 [Compound 10]
- Primary SP Basal_PCSK9 HepG2 SP % Inhib @ 5 μM (PCSK9 [1]): 11.61%

SMILES: CC1=CCc2c(c3ccccc3n2C)C(c2ccccc2)C1 (centres unmarked) [Compound 11]
- Primary SP Basal_PCSK9 HepG2 SP % Inhib @ 5 μM (PCSK9 [1]): 38.95%

SMILES: CC1C=CC(C)C(c2ccccc2)c2c1n(C)c1ccccc21 (centres unmarked) [Compound 12]
- Primary SP PCSK9 AlphaLisa Huh7 SP % Inhib @ 10 μM (PCSK9 [2]; Huh7): −261.1%

SMILES: CC1(C)c2c(n(Cc3ccccc3)c3ccccc23)C2C=CC1C2 (centres unmarked) [Compound 13]
- Primary SP Basal_PCSK9 HepG2 SP % Inhib @ 5 μM (PCSK9 [1]): 18.09%

- IC50 (PCSK9 [1]): > 50 µM
SMILES: CC1(C)c2c([nH]c3ccccc23)C2C=CC1C2 (centres unmarked) [Compound 14]
- Primary SP Basal_PCSK9 HepG2 SP % Inhib @ 2 μM (PCSK9 [1]): 47.9%

SMILES: COC(=O)c1ccc2[nH]c3c(c2c1)C(C)(C)C1C=CC3C1 (centres unmarked) [Compound 15]
- Primary SP PCSK9 AlphaLisa Huh7 SP % Inhib @ 10 μM (PCSK9 [2]; Huh7): −117.8%

SMILES: CC1(C)c2c([nH]c3ccc(I)cc23)C2C=CC1C2 (centres unmarked) [Compound 16]
- Primary SP Basal_PCSK9 HepG2 SP % Inhib @ 5 μM (PCSK9 [1]): 9.989%

SMILES: CC1(C)c2c([nH]c3ccc(Br)cc23)C2C=CC1C2 (centres unmarked) [Compound 17]
- Primary SP Basal_PCSK9 HepG2 SP % Inhib @ 5 μM (PCSK9 [1]): 37.33%

SMILES: CC1(C)c2c([nH]c3ccc(Cl)cc23)C2C=CC1C2 (centres unmarked) [Compound 18]
- Primary SP Basal_PCSK9 HepG2 SP % Inhib @ 5 μM (PCSK9 [1]): 21.64%

SMILES: Cn1c2c(c3ccccc31)C1(CCCCC1)CC2c1ccccc1 (centres unmarked) [Compound 19]
- Primary SP Basal_PCSK9 HepG2 SP % Inhib @ 5 μM (PCSK9 [1]): 7.268%

SMILES: COc1ccc(C2CC3(CCCCC3)c3c2n(C)c2ccccc32)cc1 (centres unmarked) [Compound 20]
- Primary SP Basal_PCSK9 HepG2 SP % Inhib @ 5 μM (PCSK9 [1]): 15.69%

SMILES: Cc1ccc(C2CC3(CCCCC3)c3c2n(C)c2ccccc32)cc1 (centres unmarked) [Compound 21]
- Primary SP Basal_PCSK9 HepG2 SP % Inhib @ 5 μM (PCSK9 [1]): 12.18%

- IC50 (PCSK9 [2]; Huh7, concentration response curve, read-out: Primary CRC PCSK9 AlphaLisa Huh7 CRC Rel IC50): > 40 µM
SMILES: Cn1c2c(c3ccccc31)C1(CCCCC1)CC2c1ccc2ccccc2c1 (centres unmarked) [Compound 22]
- Primary SP Basal_PCSK9 HepG2 SP % Inhib @ 5 μM (PCSK9 [1]): 77.2%

SMILES: CC1(C)c2c([nH]c3ccc(F)cc23)C2C=CC1C2 (centres unmarked) [Compound 23]
- Primary SP PCSK9 AlphaLisa Huh7 SP % Inhib @ 10 μM (PCSK9 [2]; Huh7): −35.06%

SMILES: CC1(C)c2c([nH]c3ccc(O)cc23)C2C=CC1C2 (centres unmarked) [Compound 24]
- Primary SP Basal_PCSK9 HepG2 SP % Inhib @ 5 μM (PCSK9 [1]): 4.997%

SMILES: CC1(C)c2c([nH]c3ccc(C(F)(F)F)cc23)C2C=CC1C2 (centres unmarked) [Compound 25]
- Primary SP PCSK9 AlphaLisa Huh7 SP % Inhib @ 10 μM (PCSK9 [2]; Huh7): −334%

- IC50 (PCSK9 [1]): 4.12 µM
SMILES: Cc1ccc(C2CC(C)(C)c3c2[nH]c2ccccc32)cc1 (centres unmarked) [Compound 31]
- Primary SP Basal_PCSK9 HepG2 SP % Inhib @ 5 μM (PCSK9 [1]): 26.2%
- accumulation of PCSK9 in culture media (PCSK9 [1]): significantly reduced accumulation of PCSK9 in culture media in a time-dependent and concentration-dependent manner
- Primary SP Basal_PCSK9 HepG2 SP % Inhib @ 50 μM (PCSK9 [1]): 87.5%
- activity rating in words (PCSK9 inhibition, Table 2) (PCSK9 [1]): particularly strongly active
- Secondary Basal_PCSK9 ELISA RPH % Inhib @ 100 μM (PCSK9 [3]): 19.03% and 22.14%

SMILES: c1ccc(C2CC3(CCCCC3)c3c2[nH]c2ccccc32)cc1 (centres unmarked) [Compound 32]
- Primary SP Basal_PCSK9 HepG2 SP % Inhib @ 5 μM (PCSK9 [1]): 8.8%
- Primary SP Basal_PCSK9 HepG2 SP % Inhib @ 50 μM (PCSK9 [1]): 11.9%
- activity rating in words (PCSK9 inhibition, Table 2) (PCSK9 [1]): weakly active

- IC50 (PCSK9 [1]): 2.12 µM
SMILES: Cc1ccc(C2CC3(CCCCC3)c3c2[nH]c2ccccc32)cc1 (centres unmarked) [Compound 33]
- Primary SP Basal_PCSK9 HepG2 SP % Inhib @ 5 μM (PCSK9 [1]): 18.9%
- accumulation of PCSK9 in culture media (PCSK9 [1]): significantly reduced accumulation of PCSK9 in culture media in a time-dependent and concentration-dependent manner
- Primary SP Basal_PCSK9 HepG2 SP % Inhib @ 50 μM (PCSK9 [1]): 53.4%
- activity rating in words (PCSK9 inhibition, Table 2) (PCSK9 [1]): particularly strongly active
- Secondary Basal_PCSK9 ELISA RPH % Inhib @ 20 μM (PCSK9 [3]; 20 μM): −4.143% and 2.541% and 3.284% and −5.595%
- Secondary Basal_PCSK9 ELISA RPH % Inhib @ 100 μM (PCSK9 [3]): 25.95% and 29.77%

- IC50 (PCSK9 [1]): 3.14 µM
SMILES: Cc1ccc(C2CC3(CCCCC3)c3c2[nH]c2ccc(C)cc32)cc1 (centres unmarked) [Compound 35]
- Primary SP Basal_PCSK9 HepG2 SP % Inhib @ 5 μM (PCSK9 [1]): 26.4%
- accumulation of PCSK9 in culture media (PCSK9 [1]): significantly reduced accumulation of PCSK9 in culture media in a time-dependent and concentration-dependent manner
- Primary SP Basal_PCSK9 HepG2 SP % Inhib @ 50 μM (PCSK9 [1]): 90%
- activity rating in words (PCSK9 inhibition, Table 2) (PCSK9 [1]): particularly strongly active

- IC50 (PCSK9 [1]): 18.6 µM
SMILES: Cc1ccc(C2CC(C)(C)c3c2[nH]c2ccc(C)cc32)cc1 (centres unmarked) [Compound 36]
- Primary SP Basal_PCSK9 HepG2 SP % Inhib @ 5 μM (PCSK9 [1]): 24.5%
- Primary SP Basal_PCSK9 HepG2 SP % Inhib @ 50 μM (PCSK9 [1]): 96.5%

SMILES: COC(=O)[C@@H]1CC[C@H](O)[C@@]2(C)c3ccccc3N(C)[C@@H]12 [Compound 49]
- Primary SP Basal_PCSK9 HepG2 SP % Inhib @ 50 μM (PCSK9 [1]): −13.7% and −22.9%

SMILES: CC1(C)C(=O)C[C@@]2(C)c3ccccc3N(Cc3ccccc3)[C@@]12C [Compound 53]
- Primary SP Basal_PCSK9 HepG2 SP % Inhib @ 50 μM (PCSK9 [1]): −20.1% and −22.3%

SMILES: CN1c2ccccc2[C@]2(C)Cc3ccccc3N[C@H]12 [Compound 54]
- Primary SP PCSK9 AlphaLisa Huh7 SP % Inhib @ 10 μM (PCSK9 [2]; Huh7): −11.97%

SMILES: C[C@@]12Cc3ccccc3N[C@@H]1N(Cc1ccccc1)c1ccccc12 [Compound 55]
- Primary SP PCSK9 AlphaLisa Huh7 SP % Inhib @ 10 μM (PCSK9 [2]; Huh7): −22.6%

SMILES: CCC[C@@]12Cc3ccccc3N[C@@H]1N(C)c1ccccc12 [Compound 56]
- Primary SP PCSK9 AlphaLisa Huh7 SP % Inhib @ 10 μM (PCSK9 [2]; Huh7): 32.56% and 23.45%

SMILES: CN1c2ccccc2[C@]2(Cc3ccccc3)Cc3ccccc3N[C@H]12 [Compound 57]
- Primary SP PCSK9 AlphaLisa Huh7 SP % Inhib @ 10 μM (PCSK9 [2]; Huh7): 17.71%

SMILES: Cc1cccc2c1N[C@@H]1N(C)c3ccccc3[C@]1(C)C2 [Compound 58]
- Primary SP PCSK9 AlphaLisa Huh7 SP % Inhib @ 10 μM (PCSK9 [2]; Huh7): −2.718%

SMILES: Cc1ccc2c(c1)C[C@@]1(C)c3ccccc3N(C)[C@H]1N2 [Compound 59]
- Primary SP PCSK9 AlphaLisa Huh7 SP % Inhib @ 10.1 μM (PCSK9 [2]; 10.1 μM, Huh7): −5.307%

SMILES: CN1c2ccccc2[C@]2(C)Cc3cc(Cl)ccc3N[C@H]12 [Compound 60]
- Primary SP PCSK9 AlphaLisa Huh7 SP % Inhib @ 10 μM (PCSK9 [2]; Huh7): 9.09%

SMILES: C=CCc1ccc2c(c1)C[C@@]1(C)c3ccccc3N(C)[C@H]1N2 [Compound 61]
- Primary SP PCSK9 AlphaLisa Huh7 SP % Inhib @ 10 μM (PCSK9 [2]; Huh7): −16.91%

SMILES: CN1c2ccc(Br)cc2[C@]2(C)Cc3ccccc3N[C@H]12 [Compound 62]
- Primary SP PCSK9 AlphaLisa Huh7 SP % Inhib @ 10 μM (PCSK9 [2]; Huh7): 10.55% and 20.08%
